In patent publication US11802120B2, “Fused cyclic urea derivatives as CRHR2 antagonist” (RaQualia Pharma Inc., priority 2018, dated 2023):

Molecular target: T1, human CRHR2-alpha (Homo sapiens, UniProt Q13324)
T1 sequence (Q13324 1-411): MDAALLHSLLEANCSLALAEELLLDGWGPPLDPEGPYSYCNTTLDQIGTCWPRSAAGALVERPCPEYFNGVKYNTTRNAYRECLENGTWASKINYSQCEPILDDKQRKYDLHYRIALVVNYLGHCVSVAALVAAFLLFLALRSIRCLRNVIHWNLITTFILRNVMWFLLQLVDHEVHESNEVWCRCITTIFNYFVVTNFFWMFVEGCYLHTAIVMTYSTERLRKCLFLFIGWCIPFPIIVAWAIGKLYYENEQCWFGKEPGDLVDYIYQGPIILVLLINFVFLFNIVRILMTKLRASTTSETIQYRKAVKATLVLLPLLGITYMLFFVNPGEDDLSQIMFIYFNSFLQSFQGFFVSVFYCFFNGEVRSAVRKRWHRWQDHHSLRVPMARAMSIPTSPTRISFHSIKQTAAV
Experiment: cAMP functional assay for human CRHR2 (LANCE Ultra cAMP, TR-FRET)
Assay type: cell-based
Settings: CHO-K1 cells expressing human CRHR2-alpha, agonist human urocortin2 at EC80, cAMP; read-out: IC50 against CRHR2
Procedure, shortened: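 IC50 values derive from percent inhibition of EC80 agonist-stimulated cAMP in CHO-K1 transfectants, with 0.5 mM IBMX present; the CRHR2 line was stimulated by human urocortin2 and the CRHR1 line by CRF.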

O=C(NCCF)c1ccc(-n2c(=O)n(C[C@H]3CC[C@H](NC(=O)c4cc(Cl)cnc4C(F)(F)F)CC3)c3ccccc32)cn1 [Example 410, 5-(3-(((1r,4r)-4-(5-chloro-2-(trifluoromethyl)nicotinamido)cyclohexyl)methyl)-2-oxo-2,3-dihydro-1H-benzo[d]imidazol-1-yl)-N-(2-fluoroethyl) picolinamide]
IC50: < 300 nM

O=C(NCC(F)F)c1ccc(-n2c(=O)n(C[C@H]3CC[C@H](NC(=O)c4cc(Cl)cnc4C(F)(F)F)CC3)c3ccccc32)cn1 [Example 411, 5-(3-(((1r,4r)-4-(5-chloro-2-(trifluoromethyl)nicotinamido)cyclohexyl)methyl)-2-oxo-2,3-dihydro-1H-benzo[d]imidazol-1-yl)-N-(2,2-difluoroethyl) picolinamide]
IC50: < 300 nM

Cc1ncc(Cl)cc1C(=O)N[C@H]1CC[C@H](Cn2c(=O)n(-c3ccc(SCCO)nc3)c3ccccc32)CC1 [Example 412, 5-chloro-N-((1r,4r)-4-((3-(6-((2-hydroxyethyl)thio)pyridin-3-yl)-2-oxo-2,3-dihydro-1H-benzo[d]imidazol-1-yl)methyl)cyclohexyl)-2-methylnicotinamide]
IC50: < 300 nM

Cc1ncc(Cl)cc1C(=O)N[C@H]1CC[C@H](Cn2c(=O)n(-c3cncc(N4CCOCC4)c3)c3ccccc32)CC1 [Example 413, 5-chloro-2-methyl-N-((1r,4r)-4-((3-(5-morpholinopyridin-3-yl)-2-oxo-2,3-dihydro-1H-benzo[d]imidazol-1-yl)methyl)cyclohexyl)nicotinamide]
IC50: < 300 nM

O=C(N[C@H]1CC[C@H](Cn2c(=O)n(-c3ccn4cncc4c3)c3ccccc32)CC1)c1cc(Cl)cnc1C(F)F [Example 415, 5-chloro-2-(difluoromethyl)-N-((1r,4r)-4-((3-(imidazo[1,5-a]pyridin-7-yl)-2-oxo-2,3-dihydro-1H-benzo[d]imidazol-1-yl)methyl)cyclohexyl)nicotinamide]
IC50: < 300 nM

COCCOc1ccc(-n2c(=O)n(C[C@H]3CC[C@H](NC(=O)c4cc(Cl)cnc4C(F)(F)F)CC3)c3ccccc32)cn1 [Example 416, 5-chloro-N-((1r,4r)-4-((3-(6-(2-methoxyethoxy)pyridin-3-yl)-2-oxo-2,3-dihydro-1H-benzo [d]imidazol-1-yl)methyl)cyclo-hexyl)-2-(trifluoromethyl) nicotinamide]
IC50: < 300 nM

COCCOc1ccc(-n2c(=O)n(C[C@H]3CC[C@H](NC(=O)c4cc(Cl)cnc4C)CC3)c3ccccc32)cn1 [Example 417, 5-chloro-N-((1r,4r)-4-((3-(6-(2-methoxyethoxy)pyridin-3-yl)-2-oxo-2,3-dihydro-1H-benzo[d]imidazol-1-yl)methyl)cyclohexyl)-2-methylnicotinamide]
IC50: < 300 nM

O=C(N[C@H]1CC[C@H](Cn2c(=O)n(-c3cncc4ccccc34)c3ccccc32)CC1)c1cc(Cl)cnc1C(F)F [Example 418, 5-chloro-2-(difluoromethyl)-N-((1r,4r)-4-((3-(isoquinolin-4-yl)-2-oxo-2,3-dihydro-1H-benzo [d]imidazol-1-yl)methyl)cyclo-hexyl)nicotinamide]
IC50: < 300 nM

O=C(N[C@H]1CC[C@H](Cn2c(=O)n(-c3cccc4cccnc34)c3ccccc32)CC1)c1cc(Cl)cnc1C(F)F [Example 419, 5-chloro-2-(difluoromethyl)-N-((1r,4r)-4-((2-oxo-3-(quinolin-8-yl)-2,3-dihydro-1H-benzo [d]imidazol-1-yl)methyl)cyclo-hexyl)nicotinamide]
IC50: < 300 nM

O=C(N[C@H]1CC[C@H](Cn2c(=O)n(-c3cccc4nccn34)c3ccccc32)CC1)c1cc(Cl)cnc1C(F)F [Example 420, 5-chloro-2-(difluoromethyl)-N-((1r,4r)-4-((3-(imidazo[1,2-a]pyridin-5-yl)-2-oxo-2,3-dihydro-1H-benzo[d]imidazol-1-yl)methyl)cyclohexyl)nicotinamide]
IC50: < 300 nM

Cn1cc2c(-n3c(=O)n(C[C@H]4CC[C@H](NC(=O)c5cc(Cl)cnc5C(F)F)CC4)c4ccccc43)cccc2n1 [Example 421, 5-chloro-2-(difluoromethyl)-N-((1r,4r)-4-((3-(2-methyl-2H-indazol-4-yl)-2-oxo-2,3-dihydro-1H-benzo[d]imidazol-1-yl)methyl)cyclohexyl)nicotinamide]
IC50: < 300 nM

O=C(N[C@H]1CC[C@H](Cn2c(=O)n(-c3ccc4cccnc4c3)c3ccccc32)CC1)c1cc(Cl)cnc1C(F)F [Example 422, 5-chloro-2-(difluoromethyl)-N-((1r,4r)-4-((2-oxo-3-(quinolin-7-yl)-2,3-dihydro-1H-benzo[d]imidazol-1-yl)methyl)cyclo-hexyl)nicotinamide]
IC50: < 300 nM

O=C(N[C@H]1CC[C@H](Cn2c(=O)n(-c3ccc4ccncc4c3)c3ccccc32)CC1)c1cc(Cl)cnc1C(F)F [Example 423, 5-chloro-2-(difluoromethyl)-N-((1r,4r)-4-((3-(isoquinolin-7-yl)-2-oxo-2,3-dihydro-1H-benzo[d]imidazol-1-yl)methyl)cyclohexyl)nicotinamide]
IC50: < 300 nM

O=C(N[C@H]1CC[C@H](Cn2c(=O)n(-c3cnc4[nH]ccc4c3)c3ccccc32)CC1)c1cc(Cl)cnc1C(F)(F)F [Example 424, 5-chloro-N-((1r,4r)-4-((2-oxo-3-(1H-pyrrolo[2,3-b]pyridin-5-yl)-2,3-dihydro-1H-benzo [d]imidazol-1-yl)methyl)cyclo-hexyl)-2-(trifluoromethyl) nicotinamide]
IC50: < 300 nM

Cc1c[nH]c2ncc(-n3c(=O)n(C[C@H]4CC[C@H](NC(=O)c5cc(Cl)cnc5C(F)(F)F)CC4)c4ccccc43)cc12 [Example 425, 5-chloro-N-((1r,4r)-4-((3-(3-methyl-1H-pyrrolo[2,3-b]pyridin-5-yl)-2-oxo-2,3-dihydro-1H-benzo[d]imidazol-1-yl)methyl)cyclo-hexyl)-2-(trifluoromethyl) nicotinamide]
IC50: < 300 nM

Cc1c[nH]c2ncc(-n3c(=O)n(C[C@H]4CC[C@H](NC(=O)c5cc(Cl)cnc5C(F)(F)F)CC4)c4cccnc43)cc12 [Example 427, 5-chloro-N-((1r,4r)-4-((3-(3-methyl-1H-pyrrolo[2,3-b]pyridin-5-yl)-2-oxo-2,3-dihydro-1H-imidazo[4,5-b]pyridin-1-yl)methyl)cyclo-hexyl)-2-(trifluoromethyl) nicotinamide]
IC50: < 300 nM

O=C(N[C@H]1CC[C@H](Cn2c(=O)n(-c3ccc(O[C@@H]4CCOC4)nc3)c3ccccc32)CC1)c1cc(Cl)cnc1C(F)F [Example 428, 5-chloro-2-(difluoromethyl)-N-((1R,4r)-4-((2-oxo-3-(6-(((R)-tetrahydrofuran-3-yl)oxy)pyridin-3-yl)-2,3-dihydro-1H-benzo[d]imidazol-1-yl)methyl)cyclohexyl)nicotinamide]
IC50: < 300 nM

CC(C)(O)COc1ccc(-n2c(=O)n(C[C@H]3CC[C@H](NC(=O)c4cc(Cl)cnc4C(F)F)CC3)c3ccccc32)cn1 [Example 429, 5-chloro-2-(difluoromethyl)-N-((1r,4r)-4-((3-(6-(2-hydroxy-2-methylpropoxy)pyridin-3-yl)-2-oxo-2,3-dihydro-1H-benzo[d]imidazol-1-yl)methyl)cyclohexyl) nicotinamide]
IC50: < 300 nM
